A short description of this data set: Intrinsic clearance in human liver microsomes. It is filed as ADME, Microsome. The note with it: read-out: CLH.

Regarding `OC(CC1c2ccccc2-c2cncn21)C1CCCCC1` (stereo unspecified), the predicted hepatic clearance was 18 mL/min/kg.

Values taken from ChEMBL document CHEMBL4364294 (J Med Chem, 2019).
